Measurements as given in PMC9293909 (Nature Communications, 2022).
“And” between values parts separate entries of the source, which are not always exact repeats. Identical values can stand only once.

Experiments:
[1] = test system: native presynaptic A1Rs, rat hippocampal slices; assay: Extracellular fEPSP recording, inhibition of excitatory synaptic transmission in hippocampal slices; assay type: cell-based
Experimental: Rats were kept on a 12-hour light-dark cycle with slices made 90 min after entering the light cycle. […] The brain was removed, cut down the midline and the two sides of the brain stuck down to a metal base plate using cyanoacrylate glue. […] Slices were stored at 34 °C for 1–6 h in aCSF (1 mM MgCl2, 2 mM CaCl2) before use.
A slice was transferred to the recording chamber, submerged in aCSF and perfused at 4–6 ml min^−1 (32 ± 0.5 °C). The slice was placed on a grid allowing perfusion above and below the tissue and all tubing was gastight (to prevent loss of oxygen). […] Field excitatory postsynaptic potentials (fEPSPs) were evoked with either an isolated pulse stimulator model 2100 (AM Systems, WA) or ISO-Flex (AMPI, Jerusalem, Israel). For fEPSPs a 10–20 min baseline was recorded at a stimulus intensity that gave 40-50% of the maximal response. […] For fEPSP slope, a 1 ms linear region after the fibre volley was measured. Extracellular recordings were made independently on two electrophysiology rigs.
Statistical significance was tested as indicated in the text using paired or unpaired two-tailed t-tests or one-way or two-way ANOVAs with repeated measures (RM) as appropriate. Bonferroni corrections for multiple comparisons were performed. All in vitro cell signalling assay data was analysed using Prism 8.4 (Graphpad software, San Diego, CA), with all concentration-response curves being fitted using a 3 parameter logistic equation to calculate response range and IC50. All cAMP data was normalised to a forskolin concentration-response curve ran in parallel to each assay.

[2] = target: T1, hA1R (Homo sapiens, UniProt P30542); assay: Radioligand displacement of [3H]-DPCPX, CHO-K1-hA1R membranes; assay type: binding; set-up: expressed in transfected cells; [3H]DPCPX binding, agonist displacement (Fig. 1bii): unit not given here; settings: for [3H]DPCPX binding, agonist displacement (Fig. 1bii): individual repeats and mean
T1 sequence (P30542 1-326): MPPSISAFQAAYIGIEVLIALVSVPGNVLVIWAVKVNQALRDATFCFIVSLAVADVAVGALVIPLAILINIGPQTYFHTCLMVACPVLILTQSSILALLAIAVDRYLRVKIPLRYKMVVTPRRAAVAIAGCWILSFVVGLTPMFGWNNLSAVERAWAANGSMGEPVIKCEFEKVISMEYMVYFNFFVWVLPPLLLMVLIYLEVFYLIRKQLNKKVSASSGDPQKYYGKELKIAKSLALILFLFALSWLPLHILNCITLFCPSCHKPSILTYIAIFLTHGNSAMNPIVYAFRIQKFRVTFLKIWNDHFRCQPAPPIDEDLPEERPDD
Experimental: Radioligand displacement assays were conducted using crude membrane preparations (100 μg protein per tube) acquired from homogenisation of CHO-K1-hA1R cells in ice-cold buffer (2 mM MgCl2, 20 mM HEPES, pH 7.4). […] Non-specific binding was determined in the presence of 10 μM DPCPX. Membrane incubations were conducted in Sterilin™ scintillation vials (Thermo Fisher Scientific; Wilmington, Massachusetts, USA) for 60 min at room temperature. Free radioligand was separated from bound radioligand by filtration through Whatman® glass microfiber GF/B 25 mm filters (Sigma-Aldrich). Each filter was then placed in a Sterilin™ scintillation vial and radioactivity determined by: addition of 4 mL of Ultima Gold XR liquid scintillant (PerkinElmer), overnight incubation at room temperature and the retained radioactivity determined using a Beckman Coulter LS 6500 Multi-purpose scintillation counter (Beckman Coulter Inc.; Indiana, USA).
Radioligand displacement curves were fitted to the one-site competition binding equation yielding log(Ki) values.

[3] = target: T2, rA3R (Rattus norvegicus, UniProt P28647); assay: cAMP inhibition at rA3R (Flp-In-CHO); assay type: cell-based; settings: for Range rA3R: range of response as percentage of response to 10 μM forskolin
T2 construct: expressed in transfected cells; host or cells: Flp-In-CHO (ThermoFisher R75807), pcDNA5/FRT
T2 sequence (P28647 1-320): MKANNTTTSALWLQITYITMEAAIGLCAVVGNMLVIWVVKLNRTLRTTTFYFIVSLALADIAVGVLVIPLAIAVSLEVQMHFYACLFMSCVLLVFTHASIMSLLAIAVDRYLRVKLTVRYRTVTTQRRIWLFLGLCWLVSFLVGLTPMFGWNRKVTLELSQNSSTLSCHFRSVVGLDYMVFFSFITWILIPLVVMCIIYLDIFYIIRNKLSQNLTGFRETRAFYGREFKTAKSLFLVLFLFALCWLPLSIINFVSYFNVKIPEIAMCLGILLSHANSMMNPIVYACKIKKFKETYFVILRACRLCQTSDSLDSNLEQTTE
Description: Cell lines were maintained using standard subculturing routines as guided by the European Collection of Cell Culture (ECACC) and checked annually for mycoplasma infection using an EZ-PCR mycoplasma test kit from Biological Industries (Kibbutz Beit-Haemek, Israel). To investigate the signalling properties of the rat A3R (rA3R) and mutants of the human A1R (hA1R), stable cell lines were generated using Flp-In-CHO cells (ThermoFisher - R75807). Untagged hA1R from sigNanoLuciferase (Nluc)-A1R in pcDNA3.1+ and untagged rA3R from sigNluc-A3R in pcDNA3.1 + (both gifted by Dr Steve Briddon (University of Nottingham)) were cloned into the pcDNA5/FRT expression vector (Thermo Fisher Scientific). Mutations within the hA1R were made using the QuikChange Lightening Site-Directed Mutagenesis Kit (Agilent Technologies) in accordance with the manufacturer’s instructions. Constructs for generating Goa/b interfering and scrambled peptides were generated by PCR and cloned into the BamHI/HindIII site of pcDNA3.1- as described in Gilchrist et al.[60],. Prior to the initiator codon a Kozak sequence was included for enhanced translation. The peptide sequences used were: for Goa […], for Gob […], and for the scrambled peptide […] was used. Constructs were sequenced to confirm fidelity. Flp-In-CHO cells were generated through co-transfection of the cell line with pcDNA5/FRT expression vector (Thermo Fisher Scientific) containing the WT or mutant hA1R, or rA3R, and the Flp recombinase expressing plasmid, pOG44 (Thermo Fisher Scientific), in accordance with the manufacturer’s instructions. […] CHO cell lines expressing ARs of interest (including mutants of the hA1R) were routinely cultured in Ham’s F-12 nutrient mix supplemented with 10% foetal bovine serum (FBS), at 37 °C with 5% CO2, in a humidified atmosphere.

SMILES	reduction in fEPSP slope ([1]; single experiment, reversed by 8CPT 4 µM)	Ki ([2]; displacement of [3H]-DPCPX, CHO-K1-hA1R, read-out: pKi hA1R (converted))	IC50 ([3]; half-maximal response, cAMP inhibition, read-out: pIC50 rA3R (converted))	Range rA3R [3]	inhibition at 0.1 µM ([1]; Rattus norvegicus, 0.1 uM, individual slices and average, read-out: inhibition of synaptic transmission (fEPSP), concentration-response data (Fig. 1f, g))	IC50 ([1]; fEPSP, rat hippocampal slices, read-out: IC50 inhibition of synaptic transmission)	[3H]DPCPX binding, agonist displacement (Fig. 1bii) ([2]; Log [Agonist] -4 (printed 100 nM), individual repeat)	[3H]DPCPX binding, agonist displacement (Fig. 1bii) ([2]; Log [Agonist] -4 (printed 100 nM), mean)	[3H]DPCPX binding, agonist displacement (Fig. 1bii) ([2]; Log [Agonist] -5 (10 nM [sic]), individual repeat)	[3H]DPCPX binding, agonist displacement (Fig. 1bii) ([2]; Log [Agonist] -5 (10 nM [sic]), mean)	[3H]DPCPX binding, agonist displacement (Fig. 1bii) ([2]; Log [Agonist] -6)	[3H]DPCPX binding, agonist displacement (Fig. 1bii) ([2]; Log [Agonist] -6, mean)	[3H]DPCPX binding, agonist displacement (Fig. 1bii) ([2]; Log [Agonist] -7 (0.1 nM [sic]))	[3H]DPCPX binding, agonist displacement (Fig. 1bii) ([2]; Log [Agonist] -7 (0.1 nM [sic]), mean)	[3H]DPCPX binding, agonist displacement (Fig. 1bii) ([2]; Log [Agonist] -8 (0.01 nM [sic]))	[3H]DPCPX binding, agonist displacement (Fig. 1bii) ([2]; Log [Agonist] -8 (0.01 nM [sic]), mean)	[3H]DPCPX binding, agonist displacement (Fig. 1bii) ([2]; Log [Agonist] -9 (0.001 nM [sic]))	[3H]DPCPX binding, agonist displacement (Fig. 1bii) ([2]; Log [Agonist] -9 (0.001 nM [sic]), mean)
OC[C@H]1O[C@@H](n2cnc3c(N[C@@H]4CCC[C@H]4O)ncnc32)[C@H](O)[C@@H]1O [HOCPA, (2 R,3 R,4 S,5 R)−2-(6-{[(1 R,2 R)−2-hydroxycyclopentyl]amino}−9H-purin-9-yl)−5-(hydroxymethyl)oxolane-3,4-diol]	~ 80%	1550 nM	38.9 nM	68.79 ± 3.70%	–	–	–	–	–	–	–	–	–	–	–	–	–	–
OC[C@H]1O[C@@H](n2cnc3c(NC4CCCC4)ncnc32)[C@H](O)[C@@H]1O [CPA, N^6-Cyclopentyladenosine]	–	–	–	68.79 ± 3.67%	104%	11.8 ± 2.7 nM	20.2642 and 4.4733 and -15.7273 and -5.192 and 4.0456	1.6	11.1387 and 7.285 and -0.8835 and -5.9519 and 7.949	3.9	33.4844 and 35.0135 and 37.1916 and 34.6828 and 36.5376	35.4	68.5034 and 65.597 and 37.2069 and 75.7359 and 85.6552	66.5	82.5188 and 76.3158 and 97.3862 and 99.1923 and 79.3577	87.0	135.427 and 110.895 and 123.979 and 110.925 and 95.1958	115.3
